“Also recorded” adds a separate entry of the source. Where a name gives a salt, the structure may show the parent alone.
Assay: Wet granulation of anhydrous moxifloxacin hydrochloride, crystal form checked by X-ray powder diffractogram
Assay type: physicochemical
From the text: Using of anhydrous moxifloxacin hydrochloride, of which X-ray powder diffractogram could be seen (FIG. 2), in pharmaceutical formulations provides eligible stability therefore preferred rather than moxifloxacin hydrochloride monohydrate. […] It is not desired and it should be prevented.
A wet granulation method with an organic solvent or mixtures of organic solvents is describe herein in which the organic solvent or mixtures of organic solvents are selected from isopropyl alcohol (IPA), acetone, ethanol, dichloromethane and mixtures thereof. […] It is not desired to be converted and thence If conversion is not desired, then granulation should not be performed with water or water mixtures. Anhydrous moxifloxacin hydrochloride should not be exposed to water in the preparation stage. The organic solvent is selected from isopropyl alcohol (IPA), acetone, ethanol, dichloromethane or mixtures thereof in the wet granulation method so as to obtain non-convertible formulations (respectively FIG. 4, FIG. 5, FIG. 6, FIG. 7).
POVIDONE K-30 (polyvinylpyrrolidone) is added to isopropyl alcohol and mixed until the POVIDONE K-30 (polyvinylpyrrolidone) is completely dissolved (Step 1). Moxifloxacin Hydrochloride and Microcrystalline Cellulose are transferred to a granulator and mixed (Step 2). The granulation solution from step 1 is added to the powder mixtures from step 2 and mixed. Wet granules are taken from the granulator to the oven and dried. The granules are sieved. MANNITOL SD 200 (mannitol) and croscarmellose sodium are transferred to the mixtures in the container and mixed. Magnesium stearate is sieved and added to the mixtures in the container and sieved. The blend is tabletted using appropriate punches according to the specifications.

**Q.** For `COc1c(N2C[C@@H]3CCCN[C@@H]3C2)c(F)cc2c(=O)c(C(=O)O)cn(C3CC3)c12` [anhydrous moxifloxacin hydrochloride], which “conversion of anhydrous form to moxifloxacin hydrochloride monohydrate” value (“conversion of anhydrous form” below) (wet granulation with acetone (FIG. 5)) is on record?
**A.** no conversion to moxifloxacin hydrochloride monohydrate

**Q.** And the “conversion of anhydrous form” value (wet granulation with dichloromethane (FIG. 7))?
**A.** no conversion to moxifloxacin hydrochloride monohydrate

**Q.** And the “conversion of anhydrous form” value (wet granulation with ethanol (FIG. 6))?
**A.** no conversion to moxifloxacin hydrochloride monohydrate

**Q.** And the “conversion of anhydrous form” value (wet granulation with isopropyl alcohol (FIG. 4))?
**A.** no conversion

**Q.** What about the “conversion of anhydrous form” value (wet granulation with water as wetting agent (FIG. 3), hydrochloride) of the same molecule?
**A.** instantly converted to moxifloxacin hydrochloride monohydrate; also recorded: conversion from anhydrous moxifloxacin hydrochloride to moxifloxacin hydrochloride monohydrate
